The text below walks through data of ChEMBL document CHEMBL2375234, “Rhazinilam-Leuconolam-Leuconoxine Alkaloids from Leuconotis griffithii” (J Nat Prod, 2013).

Converted amounts (≈) assume the structure as drawn.

Assay [1] in a line: Inhibition of p-gp in multidrug-resistant human KB cells assessed as increase in vincristine-mediated cytotoxicity. It counts as cell-based.
For another assay, the system named is KB. As to the kind of experiment: Cytotoxicity against human KB cells. The class given is functional, cell-based.

As for `CC[C@@]12CCCN3CC[C@@]4(O)c5ccccc5N(C(=O)CC1)C324` (some centres undefined), the IC50 (commonly the point on the concentration scale where inhibition reaches its midpoint) in assay [1] was 9.34 µg/mL (≈ 29.9 µM).

Turning to `CC[C@@]12CCCN3CC[C@H]4c5ccccc5N(C(=O)CC1)C432` (some centres undefined), the IC50 in the assay on KB was found to be 12 µg/mL (≈ 40.5 µM).

On to `CC[C@@]12CCCN3C(=O)C[C@@]4(O)c5ccccc5N(C(=O)CC1)C324` (some centres undefined), for which, in the assay with KB, the IC50 was found to be 12 µg/mL (≈ 36.8 µM).

`CC[C@@]12CCC(=O)Nc3ccccc3-c3ccn(c31)C(=O)C2` [NOR-RHAZINICINE] registered an IC50 in the assay with KB of 12 µg/mL (≈ 40.8 µM).
